{"source": "paper PMC5620575", "about": "(Pharmaceutics, 2017)", "key": {"Heamophilus influenzae": {"tested_on": "Heamophilus influenzae", "set-up": "method as in PMID 12467705, PMID 15911326, PMID 17140706, PMID 19376613, PMID 23811087", "details": "unit printed only for the neighbouring MICs of the sentence; cited from earlier work"}, "S. aureus Giorgio": {"tested_on": "S. aureus Giorgio", "set-up": "method as in ref unpublished data from Jin-Hwan Kwak at Handong Global University", "details": "oral suspension 1 and 4 h after infection, survival recorded for 72 h; ref unpublished data from Jin-Hwan Kwak at Handong Global University; cited from earlier work"}, "[1]": {"assay": "pharmacokinetics after single oral administration as suspension", "assay_type": "in vivo", "details": "New Zealand White, plasma, rabbit, 20 mg/kg, n = 4", "procedure": "The pediatric feeding tube was pushed until it reached the stomach.\nThree groups of rabbits (n = 4, each) received 20 mg/kg oral dose of each compound. […] Accurately weighted amounts of each compound were dissolved/suspended in 20 mL of warm normal saline using an ultrasound water bath. […] The solutions/suspensions of the three compounds were administered orally to the rabbits using a pediatric feeding tubes. After oral administration of each compound, serial blood samples were obtained through the IV catheter, over a period of 10 h after administration. Plasma was obtained from blood by centrifugation, and samples were kept at −80 °C until analysis.\n(§1) The pharmacokinetic parameters for each of the three compounds including half-life (t1/2), volume of distribution (Vd), elimination rate constant (k), area under the plasma concentration-time curve (AUC), total body clearance (CLT), renal clearance (CLR), and oral bioavailability (F) were determined using the general pharmacokinetic parameter calculation procedures using PKPD tools for Microsoft Excel. The obtained pharmacokinetic parameters for each compound were compared using Statistical Package of Social Sciences (SPSS) to determine the difference in the pharmacokinetic behavior for the three compounds."}, "Streptococcus pneumoniae": {"tested_on": "Streptococcus pneumoniae", "set-up": "method as in PMID 12467705, PMID 15911326, PMID 17140706, PMID 19376613, PMID 23811087", "details": "cited from earlier work"}, "[2]": {"assay": "pharmacokinetics after single oral administration as microemulsion", "assay_type": "in vivo", "details": "New Zealand White, plasma, rabbit, 20 mg/kg, n = 3", "procedure": "Three groups of rabbits (n = 3, each) received 20 mg/kg oral dose of each compound in the form of microemulsion through a pediatric feeding tube. After administration, serial blood samples were obtained through the IV catheter, over a period of 10 h. Plasma was obtained from blood by centrifugation, and samples were kept at −80 °C until analysis.\nas §1"}, "[3]": {"assay": "pharmacokinetics after single IV administration", "assay_type": "in vivo", "details": "rabbit, 5 mg/kg", "from_the_text": "IV administration of the compounds under investigation, and collection of blood samples were through a catheter inserted in the marginal ear vein of the rabbit (I-Cath, CharterMed Inc., Winston-Salem, NC, USA). After IV drug administration, blood was withdrawn to fill the cannula and then reinjected three times before obtaining any blood samples to prevent contamination. Furthermore, the cannula was flushed with heparinized saline to prevent blockage of the cannula and prevent sample to sample contamination.\nUrine samples were collected utilizing Foly Catheter (size French 8). The catheter was inserted into the rabbit bladder using a lubricant. When urine is collected over a specific time interval, the bladder was irrigated with 3 × 15 mL normal saline at 3 min, 6 min, and 10 min before the end of the urine collection interval [15, 16]. Irrigation of the bladder is necessary to obtain the majority of the drug eliminated in urine during the collection interval.\nThree groups of rabbits (n = 4, each) received 5 mg/kg dose of each compound via the IV catheter. This dose was selected based on the results of a preliminary experiment to achieve measurable plasma concentrations for 8 h using our analytical methods, to ensure good characterization of the plasma concentration-time profile. Accurately weighed Lzd and PH027 powder were dissolved first in 600 μL of ethanol using an ultrasound water bath. The resulting solution was then diluted with normal saline to produce the solutions used for IV administration, which consist of the dose of the compound dissolved in 3 mL of 20% ethanol in normal saline. PH051 required the use of slightly larger volume of ethanol to achieve complete dissolution. So, 900 μL of ethanol were used, and the resulting solution used for IV administration consisted of PH051 dose dissolved in 3 mL of 30% ethanol in normal saline. The difference in the volume of ethanol administered, 300 μL, which was necessary to ensure complete dissolution of PH051, should not have a significant effect on the pharmacokinetic behavior of PH051. The solutions were administered slowly over a period of […] administration, serial blood and urine samples were obtained over a period of 8 h. Plasma was obtained from blood by centrifugation, and samples were kept at −80 °C until analysis. The volumes of urine samples were determined and recorded, and aliquots were kept at −80 °C until analysis.\nas §1"}, "[4]": {"set-up": "method as in unpublished data from our laboratory", "details": "rabbit urine after IV administration; ref unpublished data from our laboratory; cited from earlier work"}, "[5]": {"assay": "tissue to plasma distribution", "assay_type": "in vivo", "details": "New Zealand White, rabbit, in vivo, 2 x 10 mg/kg IV, 2 h after second dose, n = 3, read-out: Tissue to Plasma Concentration Ratio, Kidney", "procedure": "Three groups of White New Zealand rabbits (n = 3, each) weighing 3.0–3.5 kg were used. Each group received 10 mg/kg of one compounds administered intravenously over a period of 3–5 min, followed one hour later by a second IV dose of 10 mg/kg. Two h later, the rabbits were euthanized with an IV dose of pentobarbital. Plasma and tissue samples, including kidney, liver, lungs, spleen, heart, muscles, and vetrus fluid were collected immediately, and stored at −80 °C until analysis.\nPlasma ultra-filtrate samples were analyzed using the same procedures for the plasma. Tissue homogenates were prepared by adding 1 gm of the tissues samples to 4 g of phosphate buffer, pH 7.4 (1:4, w/w), then homogenization using Tissue-Tearor, Bio-Spec Products Inc. (Bartlesville, OK, USA). Aliquots of 200 μL of tissue homogenate samples were analyzed using the procedures for the plasma and the concentrations were determined using plasma calibrators as described and validated previously for Lzd and PH027 [18].\nThe tissue to plasma concentration ratios for the three compounds were calculated from the ratio of the tissue homogenate concentrations corrected for the dilution during the homoginization process and the plasma concentrations. Generally, the three compounds have very good distribution to all tissues. The tissue to plasma distribution ratios for the novel compounds were more than one in kidney, lung, liver, heart, muscles and spleen, and the ratios were more than those for Lzd in all investigated tissues. Table 3, summerizes the tissue to plasma distribution ratios for the three compounds in different tissues."}, "[6]": {"set-up": "method as in ref 25 = [25]; 25. ZYVOXAM ® Product Monograph Pfizer Canada Inc. Kirkland, QC, Canada 2015", "details": "humans; cited from earlier work"}, "[7]": {"details": "weak base; reported, no reference given; cited from earlier work"}, "[8]": {"details": "humans; cited from earlier work"}, "Escherichia coli": {"tested_on": "Escherichia coli", "set-up": "method as in PMID 12467705, PMID 15911326, PMID 17140706, PMID 19376613, PMID 23811087", "details": "cited from earlier work"}, "Moraxella catarrhalis": {"tested_on": "Moraxella catarrhalis", "set-up": "method as in PMID 12467705, PMID 15911326, PMID 17140706, PMID 19376613, PMID 23811087", "details": "cited from earlier work"}, "[9]": {"tested_on": "Staphylococcus aureus and Enterococci spp", "set-up": "method as in PMID 12467705, PMID 15911326, PMID 17140706, PMID 19376613, PMID 23811087", "details": "clinical isolates; cited from earlier work"}, "[10]": {"details": "White New Zealand, plasma, n = 4"}}}
{"smiles": "CC(=O)NC[C@H]1CN(c2ccc(N3CCOCC3)c(F)c2)C(=O)O1", "note": "[Linezolid, reference compound]", "values": [{"measurement": "MIC", "setting": "Heamophilus influenzae", "result": 8, "unit": "µg/mL"}, {"measurement": "in vivo activity against systemic mice infection", "setting": "S. aureus Giorgio", "result": "better than the in vivo activity of the novel triazolyl-oxazolidinone derivatives"}, {"measurement": "AUC", "setting": "[1]", "result": "6250 ± 3620", "unit": "ng·h/mL"}, {"measurement": "Cmax", "setting": "[1]", "result": "3910 ± 1010", "unit": "ng/mL"}, {"measurement": "Tmax", "setting": "[1]", "result": 60, "unit": "min"}, {"measurement": "MIC", "setting": "Streptococcus pneumoniae", "result": 0.5, "unit": "µg/mL"}, {"measurement": "AUC", "setting": "[2]", "result": "8350 ± 3340", "unit": "ng·h/mL"}, {"measurement": "Cmax", "setting": "[2]", "result": "3410 ± 1800", "unit": "ng/mL"}, {"measurement": "Tmax", "setting": "[2]", "result": 45, "unit": "min"}, {"measurement": "AUC", "setting": "[3]; [10]", "result": "4040 ± 1280", "unit": "ng·h/mL"}, {"measurement": "half-life", "setting": "[3]; [10]", "result": "52.4 ± 6.3", "unit": "min"}, {"measurement": "k el", "setting": "[3]; White New Zealand, plasma, n = 4, read-out: Elimination rate constant (converted)", "result": 0.00022, "unit": "s⁻¹"}, {"measurement": "CL renal", "setting": "[3]; White New Zealand, urine and plasma, from renal excretion rate and plasma drug concentration, read-out: Renal clearance (converted)", "result": 1.38, "unit": "mL/min/kg"}, {"measurement": "CLT", "setting": "[3]; n = 4", "result": "20.7 ± 7.17", "unit": "mL/min/kg"}, {"measurement": "Fraction excreted unchanged in urine", "setting": "[3]; ratio of renal clearance to total body clearance", "result": 5.70, "unit": "%"}, {"measurement": "main metabolic route", "setting": "[4]", "result": "metabolized mainly through oxidation"}, {"measurement": "Kp at 2 h", "setting": "[5]", "result": "2.05 ± 0.067"}, {"measurement": "dose excretion in urine", "setting": "[6]", "result": 30, "unit": "%"}, {"measurement": "pKa", "setting": "[7]", "result": 1.4}, {"measurement": "plasma protein binding", "setting": "[8]", "result": 30, "unit": "%"}, {"measurement": "MIC", "setting": "Escherichia coli", "result": "> 64", "unit": "µg/mL"}, {"measurement": "MIC", "setting": "Moraxella catarrhalis", "result": 8.0, "unit": "µg/mL"}, {"measurement": "MIC", "setting": "[9]", "result": "0.5 to 1.0", "unit": "µg/mL"}]}
